Experimental data published in patent US5574008A, “Biologically active fragments of glucagon-like insulinotropic peptide” (Eli Lilly and Company, priority 1994, dated 1996).

Test system: fasted normal Sprague-Dawley rats
Assay: In vivo hyperglycemic clamp assay (glucose up-take assay)
Design: species or system rat
Details: 0.3 nmol/kg iv bolus at 60 min
From the text: In vivo Hyperglycemic Clamp Assay (Glucose Up-take Assay) Male Sprague-Dawley rats (Charles Rivers) weighing about 350 grams were allowed to acclimate to their surroundings for a week after which they were cannulated under isoflurane inhalation anesthetic. Two catheters were implanted into the jugular vein for infusions of glucose and GLP-1 fragment. Another catheter was implanted into the carotid artery for sampling blood. The catheters were exteriorized through the skin at the vertex of the head, filled with a glycerol/heparin solution (30 ml glycerol/10 ml heparin from a 1000 u/ml stock solution), and closed off with a one centimeter stainless steel plug. The rats were housed individually in wire mesh cages and were fed ad libitum on a standard rat chow diet. Each animal was given at least one week to recover from surgery before testing any GLP-1 fragments for biological activity. The rats were fasted overnight; on the morning of the experiment, sampling tubes were connected to the indwelling catheters, and the tubes were enclosed in a light weight stainless steel spring for protection. The rats were acclimated to their cages for 15 minutes. All experiments were carried out in conscious, free moving rats. A basal blood sample was taken for measurement of insulin and glucose levels at time zero on the timer. The rats were then given a bolus of 20% dextrose to raise plasma glucose to either 150 mg/dl (8.3 mM) or 200 mg/dl (11.2 mM). Plasma glucose levels were maintained at the chosen level by measuring plasma glucose levels approximately every 5 minutes and adjusting the calibrated variable infusion pump as needed to maintain the established blood glucose levels. Blood samples were collected at 45 and 60 minutes for the control period measurements. At 60 minutes into the clamp, 0.3 nmol/kg of the experimental GLP-1 fragment was injected via the jugular vein catheter and flushed with saline. […] The blood samples were centrifuged in a micro centrifuge to separate the plasma component. Plasma glucose was measured on a Beckman Glucose analyzer II using the glucose oxidase method. Plasma insulin was determined by standard radio immunoassay as per the manufacturer's directions (Diagnostic Products Corp.). The activity of the GLP-1 fragment was determined by the percentage change in glucose infusion rate and change in insulin secreted. These two parameters were compared to control rats that received only diluent. Note: This assay is based on reports that GLP-1 insulinotropic action is glucose dependent. The assay protocol eliminates variability due to falling glucose levels in other protocols using the "bolus" method. The hyperglycemic clamp involved administration of variable amounts of glucose (20% dextrose) to maintain glucose at a constant level of 8.3 or 11.2 mM in fasted normal Sprague-Dawley rats. The hyperglycemic clamp is maintained for 1 hour after which the GLP-1 fragment is injected as a bolus through the jugular vein. […] The glucose infusion rate (GIR) in the last 15 minutes of the control period and after the injection of the peptide is calculated. The activity of the peptide is determined by the increase in glucose infusion rate and change in insulin secreted after the injection of the peptide.

[1] = 150 mg/dl plasma glucose clamp, time 60 min
[2] = 150 mg/dl plasma glucose clamp, time 62 min
[3] = 150 mg/dl plasma glucose clamp, time 64 min
[4] = 150 mg/dl plasma glucose clamp, time 66 min
[5] = 150 mg/dl plasma glucose clamp, time 68 min
[6] = 150 mg/dl plasma glucose clamp, time 70 min
[7] = 150 mg/dl plasma glucose clamp, time 75 min
[8] = 150 mg/dl plasma glucose clamp, time 80 min
[9] = 150 mg/dl plasma glucose clamp, time 85 min
[10] = 150 mg/dl plasma glucose clamp, time 90 min
[11] = 150 mg/dl plasma glucose clamp, time 100 min
[12] = 150 mg/dl plasma glucose clamp, time 110 min
[13] = 150 mg/dl plasma glucose clamp, time 120 min
[14] = 150 mg/dl plasma glucose clamp, time 130 min
[15] = 150 mg/dl plasma glucose clamp, time 140 min
[16] = 150 mg/dl plasma glucose clamp, time 150 min
[17] = 200 mg/dl plasma glucose clamp, time 60 min
[18] = 200 mg/dl plasma glucose clamp, time 62 min
[19] = 200 mg/dl plasma glucose clamp, time 64 min
[20] = 200 mg/dl plasma glucose clamp, time 66 min
[21] = 200 mg/dl plasma glucose clamp, time 68 min
[22] = 200 mg/dl plasma glucose clamp, time 70 min
[23] = 200 mg/dl plasma glucose clamp, time 75 min
[24] = 200 mg/dl plasma glucose clamp, time 80 min
[25] = 200 mg/dl plasma glucose clamp, time 85 min
[26] = 200 mg/dl plasma glucose clamp, time 90 min
[27] = 200 mg/dl plasma glucose clamp, time 100 min
[28] = 200 mg/dl plasma glucose clamp, time 110 min
[29] = 200 mg/dl plasma glucose clamp, time 120 min
[30] = 200 mg/dl plasma glucose clamp, time 130 min
[31] = 200 mg/dl plasma glucose clamp, time 140 min
[32] = 200 mg/dl plasma glucose clamp, time 150 min

Substance: GLP-1(7-37)OH
- % Change in GIR [1]: 11.15%
- Plasma Insulin Change [1]: 1.140 ng/mL
- % Change in GIR [2]: -0.20%
- Plasma Insulin Change [2]: 7.233 ng/mL
- % Change in GIR [3]: 11.15%
- Plasma Insulin Change [3]: 1.464 ng/mL
- % Change in GIR [4]: 1.66%
- Plasma Insulin Change [4]: 0.324 ng/mL
- % Change in GIR [5]: 5.64%
- Plasma Insulin Change [5]: -0.016 ng/mL
- % Change in GIR [6]: 19.95%
- Plasma Insulin Change [6]: -0.375 ng/mL
- % Change in GIR [7]: 71.90%
- Plasma Insulin Change [7]: -0.465 ng/mL
- % Change in GIR [8]: 92.63%
- Plasma Insulin Change [8]: -0.357 ng/mL
- % Change in GIR [9]: 61.76%
- Plasma Insulin Change [9]: -0.020 ng/mL
- % Change in GIR [10]: 14.74%
- Plasma Insulin Change [10]: -0.181 ng/mL
- % Change in GIR [11]: -26.22%
- Plasma Insulin Change [11]: -0.358 ng/mL
- % Change in GIR [12]: -38.57%
- Plasma Insulin Change [12]: -0.174 ng/mL
- % Change in GIR [13]: -48.67%
- Plasma Insulin Change [13]: -0.326 ng/mL
- % Change in GIR [14]: -54.82%
- Plasma Insulin Change [14]: -0.578 ng/mL
- % Change in GIR [15]: -58.43%
- Plasma Insulin Change [15]: -0.367 ng/mL
- % Change in GIR [16]: -63.58%
- Plasma Insulin Change [16]: -0.465 ng/mL
- % Change in GIR [17]: 20.449%
- Plasma Insulin Change [17]: 1.887 ng/mL
- % Change in GIR [18]: 25.050%
- Plasma Insulin Change [18]: 11.101 ng/mL
- % Change in GIR [19]: 23.583%
- Plasma Insulin Change [19]: 4.219 ng/mL
- % Change in GIR [20]: 15.374%
- Plasma Insulin Change [20]: 3.246 ng/mL
- % Change in GIR [21]: 19.465%
- Plasma Insulin Change [21]: 1.359 ng/mL
- % Change in GIR [22]: 50.305%
- Plasma Insulin Change [22]: -0.208 ng/mL
- % Change in GIR [23]: 71.461%
- Plasma Insulin Change [23]: -0.692 ng/mL
- % Change in GIR [24]: 88.390%
- Plasma Insulin Change [24]: -0.456 ng/mL
- % Change in GIR [25]: 86.482%
- Plasma Insulin Change [25]: -0.177 ng/mL
- % Change in GIR [26]: 55.677%
- Plasma Insulin Change [26]: -0.250 ng/mL
- % Change in GIR [27]: 11.304%
- Plasma Insulin Change [27]: -0.301 ng/mL
- % Change in GIR [28]: -12.411%
- Plasma Insulin Change [28]: -0.222 ng/mL
- % Change in GIR [29]: -7.123%
- Plasma Insulin Change [29]: -0.405 ng/mL
- % Change in GIR [30]: -17.745%
- Plasma Insulin Change [30]: -0.590 ng/mL
- % Change in GIR [31]: -15.311%
- Plasma Insulin Change [31]: -0.289 ng/mL
- % Change in GIR [32]: -21.279%
- Plasma Insulin Change [32]: -0.280 ng/mL

Substance: GLP-1(R26)(9-36)NH2 [GLP-1(R26) (9-36)NH2]
- % Change in GIR [17]: 19.020%
- Plasma Insulin Change [17]: 1.692 ng/mL
- % Change in GIR [18]: 2.128%
- Plasma Insulin Change [18]: 0.693 ng/mL
- % Change in GIR [19]: 3.752%
- Plasma Insulin Change [19]: 0.025 ng/mL
- % Change in GIR [20]: 11.602%
- Plasma Insulin Change [20]: 0.204 ng/mL
- % Change in GIR [21]: 29.976%
- Plasma Insulin Change [21]: 0.063 ng/mL
- % Change in GIR [22]: 37.819%
- Plasma Insulin Change [22]: 0.185 ng/mL
- % Change in GIR [23]: 50.568%
- Plasma Insulin Change [23]: -0.125 ng/mL
- % Change in GIR [24]: 42.526%
- Plasma Insulin Change [24]: 0.134 ng/mL
- % Change in GIR [25]: 16.548%
- Plasma Insulin Change [25]: -0.550 ng/mL
- % Change in GIR [26]: -6.165%
- Plasma Insulin Change [26]: -0.336 ng/mL
- % Change in GIR [27]: -18.164%
- Plasma Insulin Change [27]: 0.027 ng/mL
- % Change in GIR [28]: -35.351%
- Plasma Insulin Change [28]: -0.100 ng/mL
- % Change in GIR [29]: -48.404%
- Plasma Insulin Change [29]: 0.399 ng/mL
